Reference: patent publication US9132200B2, “Oligomer-calcium channel blocker conjugates” (NEKTAR THERAPEUTICS, priority 2007, dated 2015)
Read-outs that look alike come from different tables or passages of the source.

Biological target: calcium channel (Rattus norvegicus, UniProt P22002)
Test: Calcium channel binding assay similar to Example 3, 3[H]-diltiazem as competing radioligand
Description: […] […] The reactions were carried out in 50 mM TRIS-HCl (pH 7.7) at 25° C. for 60 minutes. The reaction was terminated by rapid vacuum filtration onto glass fiber filters. […] Molecular Pharmacology 25, 235-241 (1984)).

[1] = Binding Assay No. 2 (Table 2), 3[H]-diltiazem radioligand

calcium channel, sequence (P22002 whole entry): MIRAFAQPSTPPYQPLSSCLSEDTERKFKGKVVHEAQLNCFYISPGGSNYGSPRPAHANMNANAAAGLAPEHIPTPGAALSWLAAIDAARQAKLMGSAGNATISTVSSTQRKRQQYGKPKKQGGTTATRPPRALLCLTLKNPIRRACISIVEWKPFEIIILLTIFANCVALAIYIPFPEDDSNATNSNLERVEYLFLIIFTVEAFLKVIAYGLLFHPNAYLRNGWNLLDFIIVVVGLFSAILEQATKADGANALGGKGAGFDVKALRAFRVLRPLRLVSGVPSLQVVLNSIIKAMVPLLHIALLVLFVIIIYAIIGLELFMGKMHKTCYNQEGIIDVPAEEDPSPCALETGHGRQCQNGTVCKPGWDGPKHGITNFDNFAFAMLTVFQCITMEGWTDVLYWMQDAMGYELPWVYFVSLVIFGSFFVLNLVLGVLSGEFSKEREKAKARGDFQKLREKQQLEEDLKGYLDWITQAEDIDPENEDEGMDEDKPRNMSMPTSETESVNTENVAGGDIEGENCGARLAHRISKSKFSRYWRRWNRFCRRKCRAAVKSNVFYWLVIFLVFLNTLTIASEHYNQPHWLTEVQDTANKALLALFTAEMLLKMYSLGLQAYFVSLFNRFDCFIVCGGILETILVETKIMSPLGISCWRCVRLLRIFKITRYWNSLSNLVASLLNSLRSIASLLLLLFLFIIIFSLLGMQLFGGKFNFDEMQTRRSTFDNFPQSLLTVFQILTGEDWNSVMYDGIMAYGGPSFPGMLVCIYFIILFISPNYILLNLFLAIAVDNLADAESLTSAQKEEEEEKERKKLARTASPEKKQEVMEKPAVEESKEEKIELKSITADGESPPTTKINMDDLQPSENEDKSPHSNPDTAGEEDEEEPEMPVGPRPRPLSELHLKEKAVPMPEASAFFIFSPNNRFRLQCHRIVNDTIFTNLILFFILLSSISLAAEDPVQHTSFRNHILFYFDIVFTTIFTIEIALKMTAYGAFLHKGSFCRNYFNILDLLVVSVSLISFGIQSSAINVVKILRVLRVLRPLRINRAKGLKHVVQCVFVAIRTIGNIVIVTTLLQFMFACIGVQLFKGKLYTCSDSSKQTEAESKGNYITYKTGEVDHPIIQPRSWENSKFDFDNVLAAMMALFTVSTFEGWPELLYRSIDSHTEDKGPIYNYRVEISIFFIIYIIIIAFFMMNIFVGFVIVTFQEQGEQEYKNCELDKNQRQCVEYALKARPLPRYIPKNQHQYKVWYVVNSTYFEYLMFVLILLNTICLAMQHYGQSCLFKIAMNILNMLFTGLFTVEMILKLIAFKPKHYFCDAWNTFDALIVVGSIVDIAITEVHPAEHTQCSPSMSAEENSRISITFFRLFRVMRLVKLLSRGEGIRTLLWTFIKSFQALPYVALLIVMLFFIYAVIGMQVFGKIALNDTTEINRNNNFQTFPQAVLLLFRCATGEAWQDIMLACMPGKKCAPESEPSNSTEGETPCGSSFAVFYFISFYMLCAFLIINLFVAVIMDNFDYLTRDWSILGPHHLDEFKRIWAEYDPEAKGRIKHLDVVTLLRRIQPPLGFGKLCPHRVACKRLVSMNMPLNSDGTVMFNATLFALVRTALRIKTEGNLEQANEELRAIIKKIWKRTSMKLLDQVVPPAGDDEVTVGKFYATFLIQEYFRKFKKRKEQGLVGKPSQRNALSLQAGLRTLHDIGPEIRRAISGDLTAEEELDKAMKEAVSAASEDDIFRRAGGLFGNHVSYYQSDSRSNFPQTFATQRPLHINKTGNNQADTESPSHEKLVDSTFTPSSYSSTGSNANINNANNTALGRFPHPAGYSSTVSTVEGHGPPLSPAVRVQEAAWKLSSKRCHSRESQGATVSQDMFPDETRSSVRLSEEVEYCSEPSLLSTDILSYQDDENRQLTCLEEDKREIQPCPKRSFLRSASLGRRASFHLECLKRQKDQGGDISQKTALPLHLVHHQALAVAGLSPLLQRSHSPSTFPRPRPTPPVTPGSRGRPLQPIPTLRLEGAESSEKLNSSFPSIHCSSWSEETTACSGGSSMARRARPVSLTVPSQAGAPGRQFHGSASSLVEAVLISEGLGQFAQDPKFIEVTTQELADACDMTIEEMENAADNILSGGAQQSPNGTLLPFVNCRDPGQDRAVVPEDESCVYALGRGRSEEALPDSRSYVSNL

Structure (SMILES): COCCOCCOCCOc1ccc(CCN(C)CCCC(C#N)(c2ccc(OC)c(OC)c2)C(C)C)cc1OC (stereo not shown) [mPEG3-O-Verapamil, O-mPEG3-verapamil]
- IC50 [1]: 541 nM

Structure (SMILES): COCCOCCOCCOCCOCCOCCOCCOc1ccc(CCN(C)CCCC(C#N)(c2ccc(OC)c(OC)c2)C(C)C)cc1OC (stereo not shown) [mPEG7-O-Verapamil, O-mPEG7-verapamil]
- IC50 [1]: 1130 nM

Structure (SMILES): COCCOCCOCCOCCOCCOc1ccc(CCN(C)CCCC(C#N)(c2ccc(OC)c(OC)c2)C(C)C)cc1OC (stereo not shown) [mPEG5-O-Verapamil, O-mPEG5-verapamil]
- IC50 [1]: 852 nM

Structure (SMILES): COCCOCCOCCOCCOCCOCCOc1ccc(CCN(C)CCCC(C#N)(c2ccc(OC)c(OC)c2)C(C)C)cc1OC (stereo not shown) [mPEG6-O-Verapamil, O-mPEG6-verapamil]
- IC50: 349 nM
